Tests used:
[1] = molecular target: T1, Human recombinant MMP-14 (Homo sapiens, UniProt P50281); test: In vitro MMP inhibition analysis (fluorogenic peptide substrate), MMP-14; type: biochemical; conditions: human recombinant catalytic domain; 4 μM substrate (A); apparent Ki without substrate correction
T1 construct: The catalytic domain enzyme was expressed in E. Coli inclusion bodies; made in house
Procedure: (§1) Several compounds and salts were analyzed in an in vitro assay to determine their ability to inhibit the MMP cleavage of peptide substrates. Inhibition constant (Ki) were calculated from the assayed compound-MMP interactions.
(§2) Human recombinant MMP-1, MMP-2, MMP-9, MMP-13, and MMP-14 were used in this assay. All enzymes were prepared in Assignee's laboratories following usual laboratory procedures. Protocols for the preparation and use of these enzymes are available in the scientific literature. See, e.g., Enzyme Nomenclature (Academic Press, San Diego, Calif., 1992) (and the citations therein). See also, Freije et al., J. Biol. Chem., 269(24), 16766-16773 (1994).
The MMP-14 full length cDNA was provided by Dr. Gregory Goldberg of Washington University (St. Louis, Mo.). The catalytic domain enzyme was expressed in E. Coli inclusion bodies, solubilized in urea, purified on a preparative […] reverse phase HPLC column, and then refolded in the presence of zinc acetate and purified for use.
(§3) All MMPs were activated using 4-aminophenylmercuric acetate (“APMA”, Sigma Chemical, St. Louis, Mo.) or trypsin. MMP-9 also was activated using human recombinant MMP-3 (purified in Assignee's laboratory following standard cloning and purification techniques).
(§4) The following fluorogenic, methoxycoumarin-containing polypeptide substrate (A) was used in the MMP inhibition assays:
(§5) MCA-ArgProLeuGlyLeuDpaAlaArgGluArgNH2 (A)
(§6) “MCA” is 7-methoxycoumarin-4-yl acetyl. Substrate (A) was prepared Assignee's laboratory. In the absence of MMP inhibitory activity, the substrate is cleaved at the Gly-Leu peptide bond. This cleavage separates the highly fluorogenic peptide from the 2,4-dinitrophenyl quencher, thus resulting in increase of fluorescent intensity.
(§7) The stock solutions of the assayed compounds and salts were prepared in 1% dimethyl sulfoxide (DMSO). These stock solutions were diluted in Buffer A (100 mM Tris-HCl, 100 mM NaCl, 10 mM CaCl2, 0.05% polyoxyethylene 23 lauryl ether, pH 7.5) to obtain solutions with different compound concentrations, i.e., assay solutions with different concentrations of the assayed MMP inhibitory compound. The experiment controls contained the same amount of Buffer A/DMSO as the assayed sample, but contained none of the tested compound or salt.
(§8) The assays from which the Ki determinations were made were performed as follows. The assayed compound samples were incubated in separate wells of untreated white polystyrene plates (Nunc Nalgene International, Rochester, N.Y.), and analyzed on a Tecan SpectraFlour Plus plate reader. The excitation wavelength was 330 nm, and the emission wavelength -420 nm. All samples (assayed compounds and controls) were incubated in separate plate wells at room temperature for 1 hr in the presence of 4 μM of MMP substrate (A). In the absence of MMP inhibitory activity, substrate (A) was cleaved at the Gly-Leu bond resulting in an increase of relative fluorescence. Inhibition was observed as a reduced rate of this increase in relative fluorescence. […] This protocol is a modification of method by Knight et al., FEBS Lett., 296(3), 263-266 (1992). Apparent inhibitory constants were determined by non-linear regression of reaction velocity as a function of inhibitor and enzyme concentration using Morrison's equation, as described by Kuzmic, P., et al., Anal. Biochem., 286(1):45-50 (2000). Modifications were made in the non-linear regression method to allow a common control reaction rate and effective enzyme concentration to be shared between all dose-response relationships on a given assay plate. Since the substrate concentration was chosen to be at or below the Km, the apparent Ki's from this analysis were reported as Ki's without correction for the influence of substrate.
The above protocols were used to determine MMP inhibition Ki constants for the compounds in Examples 1, 2, and 4-42 above. All Ki values in Table 3 are given in nM units.

[2] = molecular target: T2, Human recombinant MMP-13 (Homo sapiens, UniProt P45452); test: In vitro MMP inhibition analysis (fluorogenic peptide substrate), MMP-13; type: biochemical; conditions: human recombinant enzyme; 4 μM substrate (A); apparent Ki without substrate correction
T2 construct: made in house; host or cells: baculovirus / insect cells
Procedure: as §1, §2
The MMP-13 was obtained as a proenzyme from a full-length cDNA clone using baculovirus, as described by V. A. Luckow, “Insect Cell Expression Technology,” Protein Engineering: Principles and Practice, pp. 183-218 (edited by J. L. Cleland et al., Wiley-Liss, Inc., 1996). The expressed proenzyme was first purified over a heparin agarose column, and then over a chelating zinc chloride column. The proenzyme was then activated by APMA for use in the assay. […] See also, O'Reilly et al, Baculovirus Expression Vectors: A Laboratory Manual (W. H. Freeman and Co., New York, N.Y., 1992). See also, King et al., The Baculovirus Expression System: A Laboratory Guide (Chapman & Hall, London, England, 1992).
as §3, §4, §5, §6, §7
as §8, with “Modifications were made in the non-linear regression method to allow a common control reaction rate and effective enzyme concentration to be shared between all dose-response relationships on a given assay plate.” left out
All Ki values in Table 3 are given in nM units.

Structure (SMILES) | Ki [1] [nM] | Ki [2] [nM]
O=C(NO)C1(S(=O)(=O)c2ccc(-c3ccc(CCC(F)(F)C(F)(F)F)cc3)nc2)CCOCC1 [Example 69] | 5070 | 0.531
CCOc1ccc(-c2nc3ccc(S(=O)(=O)C4(C(=O)NO)CCOCC4)cc3s2)cc1 [Example 66] | > 312 | 0.082

Reference: patent US20040142979A1, “Heteroarylsulfonylmethyl hydroxamic acids and amides and their use as protease inhibitors” (priority 2002, published 2004)
